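Cultured in 96-well plates, cells were exposed to test compound for 48 hours across five concentrations. Here, GI50 denotes the concentration required for 50% inhibition of growth.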 Calls of active or inactive are those of the source. No stated cut-off is given here; in the data, active = GI50 up to about 1.1 µM and inactive = higher.
What was measured:
Experiment in all cases: growth of human tumour cells (NCI), 48 h
[1] = system: HCT-116
[2] = system: M14
[3] = system: CAKI-1
[4] = system: UO-31
[5] = system: SNB-75
[6] = system: SNB-19
[7] = system: BT-549
[8] = system: SF-539
[9] = system: OVCAR-5

Measured: GI50

COc1cccc2c1[C@H](OC)[C@]13O[C@@]1(C2=O)[C@H](O)[C@H](C)[C@@](O)(C(=O)[C@@H]1O[C@H]1C)[C@@H]3O
active: [1] 318 nM | [2] 221 nM | [3] 273 nM | [4] 249 nM | [5] 233 nM | [6] 286 nM | [7] 289 nM | [8] 271 nM | [9] 297 nM

Source: ChEMBL document CHEMBL1201862, “PubChem BioAssay data set” (2004)
